Source: patent US20220323406A1, “METHODS AND COMPOSITIONS FOR DIFFERENTIATING STEM CELLS” (Massachusetts Institute of Technology, priority 2019, published 2022)

Key:
ENR+CD organoids [1] = experiment: Secondary (validation) screen: ATP (CTG) assay, 2.5-D 384-well ENR+CD organoids; format: cell-based, mouse; conditions: 6-day ENR+CD, vs ENR+CD+DMSO
Description: (§1) Drugs were tested at a narrowed dose range around each treatment's identified optimal dose from the primary screen (4× below, 2× above and below).
(§2) High-throughput screening.
(§3) Secondary lysozyme secretion assay screen. Confirmatory secondary screening with primary hits was performed using the above 384-well plate method. The screen was conducted with 4-plate replicates with a base media of ENR+CD. Media was supplemented with compound at day 0 and day 3 (n=8 well replicates per dose) at four different doses: two-fold above, two-fold below, and four-fold below the optimal final dose for each respective treatment. Additionally, each plate carried a large number of ENR+DMSO or ENR+CD+DMSO (vehicle) control wells (n=100 for ATP, and n=25 for LYZ.NS and LYZ.S) for robust normalization. ATP, non-stimulated lysozyme activity and CCh-stimulated lysozyme activity was again measured and the collected data was again processed in a custom R-script, per primary screen with slight modification. Values were log10 transformed, and a plate-wise FC was calculated for each well based on the median value of ENR+CD+DMSO (vehicle) control wells to normalize plate to plate variability.

[2] = test system: ENR+CD organoids (ISC to Paneth cell differentiation); experiment: Secondary (validation) screen: LYZ.S CCh-stimulated lysozyme secretion, 2.5-D 384-well ENR+CD organoids; format: cell-based, mouse; conditions: 6-day ENR+CD, vs ENR+CD+DMSO
Description: as §1, §2, §3

[3] = test system: ENR+CD organoids (ISC to Paneth cell differentiation); experiment: Secondary (validation) screen: LYZ.NS basal lysozyme secretion, 2.5-D 384-well ENR+CD organoids; format: cell-based, mouse; conditions: for Dose.FC.LYZ.NS / Z.LYZ.NS / repSSMD.LYZ.NS: 6-day ENR+CD, vs ENR+CD+DMSO
Description: as §1, §2, §3

[4] = test system: ENR+CD organoids (ISC to Paneth cell differentiation); experiment: Primary screen: CCh-stimulated lysozyme secretion LYZ.S, 2.5-D 384-well ENR+CD organoid differentiation; format: cell-based, mouse; conditions: primary screen
Excerpt: as §2

[5] = test system: ENR+CD organoids (ISC to Paneth cell differentiation); experiment: Primary screen: basal (non-stimulated) lysozyme secretion LYZ.NS, 2.5-D 384-well ENR+CD organoid differentiation; format: cell-based, mouse; conditions: primary screen; for Z.LYZ.NS: standard z score
Excerpt: as §2

ENR+CD organoids [6] = experiment: Primary screen: ATP (CellTiter-Glo 3D, CTG) cell number/viability, 2.5-D 384-well ENR+CD organoids; conditions: primary screen; for Z.CTG: standard z score;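 for all read-outs here: compounds given at plating and again on day 3 over a 6-day differentiation from ENR+CV stem-cell-enriched precursors, ATP measured on day 6, plate median as control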
[7] = dose 0.08 uM, FC vs plate median
[8] = dose 0.40 uM, FC vs plate median
[9] = dose 2.00 uM, FC vs plate median
[10] = dose 10.00 uM, FC vs plate median

Cc1cn(-c2cc(NC(=O)c3ccc(C)c(Nc4nccc(-c5cccnc5)n4)c3)cc(C(F)(F)F)c2)cn1 [Nilotinib (AMN-107), Nilotinib, reference compound]
Dose.FC.CTG (ENR+CD organoids [1]; 0.10 uM): 0.092 log2 fold change
Dose.FC.CTG (ENR+CD organoids [1]; 0.20 uM): 0.122 log2 fold change
Dose.FC.CTG (ENR+CD organoids [1]; 0.40 uM): 0.141 log2 fold change
Dose.FC.CTG (ENR+CD organoids [1]; 0.80 uM): 0.233 log2 fold change
Dose.FC.LYZ.S ([2]; 0.10 uM): 0.044 log2 fold change
Dose.FC.LYZ.S ([2]; 0.20 uM): 0.117 log2 fold change
Dose.FC.LYZ.S ([2]; 0.40 uM): −0.007 log2 fold change
Dose.FC.LYZ.S ([2]; 0.80 uM): 0.143 log2 fold change
Dose.FC.LYZ.NS ([3]; 0.10 uM): 0.092 log2 fold change
Dose.FC.LYZ.NS ([3]; 0.20 uM): 0.161 log2 fold change
Dose.FC.LYZ.NS ([3]; 0.40 uM): 0.101 log2 fold change
Dose.FC.LYZ.NS ([3]; 0.80 uM): 0.165 log2 fold change
validated doses in secondary screen (SSMD above cutoff in both LYZ assays) ([3]; LYZ.NS and LYZ.S): multiple validated doses
biological potency compared with Bosutinib ([3]; LYZ.NS and LYZ.S mean fold change): more biologically potent
Dose.FC.LYZ.S [4, 7]: 0.235 log2 fold change
Dose.FC.LYZ.S [4, 8]: 0.293 log2 fold change
Dose.FC.LYZ.S [4, 9]: 0.033 log2 fold change
Dose.FC.LYZ.S [4, 10]: −0.197 log2 fold change
Z.LYZ.NS ([5]; dose 0.08 uM): 1.703
Z.LYZ.NS ([5]; dose 0.40 uM): 1.412
Z.LYZ.NS ([5]; dose 2.00 uM): 0.742
Z.LYZ.NS ([5]; dose 10.00 uM): −0.806
Dose.FC.LYZ.NS [5, 7]: 0.196 log2 fold change
Dose.FC.LYZ.NS [5, 8]: 0.162 log2 fold change
Dose.FC.LYZ.NS [5, 9]: 0.085 log2 fold change
Dose.FC.LYZ.NS [5, 10]: −0.093 log2 fold change
Dose.FC.CTG (ENR+CD organoids [6]; [7]): 0.322 log2 fold change
Dose.FC.CTG (ENR+CD organoids [6]; [8]): 0.348 log2 fold change
Dose.FC.CTG (ENR+CD organoids [6]; [9]): 0.242 log2 fold change
Dose.FC.CTG (ENR+CD organoids [6]; [10]): −0.012 log2 fold change

CCc1cncnc1N1CCN(Cc2nc3ccc(C(F)(F)F)cc3[nH]2)CC1 [PF-4708671]
Dose.FC.CTG (ENR+CD organoids [1]; 0.50 uM): −0.049 log2 fold change
Z.CTG (ENR+CD organoids [1]; 0.50 uM): −0.443
repSSMD.CTG (ENR+CD organoids [1]; 0.50 uM): −0.324
Dose.FC.CTG (ENR+CD organoids [1]; 1.00 uM): −0.039 log2 fold change
Z.CTG (ENR+CD organoids [1]; 1.00 uM): −0.354
repSSMD.CTG (ENR+CD organoids [1]; 1.00 uM): −0.284
Dose.FC.CTG (ENR+CD organoids [1]; 2.00 uM): −0.076 log2 fold change
Z.CTG (ENR+CD organoids [1]; 2.00 uM): −0.684
repSSMD.CTG (ENR+CD organoids [1]; 2.00 uM): −0.558
Dose.FC.CTG (ENR+CD organoids [1]; 4.00 uM): 0.067 log2 fold change
Z.CTG (ENR+CD organoids [1]; 4.00 uM): 0.601
repSSMD.CTG (ENR+CD organoids [1]; 4.00 uM): 0.414
Dose.FC.LYZ.S ([2]; 0.50 uM): −0.040 log2 fold change
Z.LYZ.S ([2]; 0.50 uM): −0.305
repSSMD.LYZ.S ([2]; 0.50 uM): −0.496
Dose.FC.LYZ.S ([2]; 1.00 uM): −0.245 log2 fold change
Z.LYZ.S ([2]; 1.00 uM): −1.879
repSSMD.LYZ.S ([2]; 1.00 uM): −2.451
Dose.FC.LYZ.S ([2]; 2.00 uM): −0.272 log2 fold change
Z.LYZ.S ([2]; 2.00 uM): −2.088
repSSMD.LYZ.S ([2]; 2.00 uM): −3.604
Dose.FC.LYZ.S ([2]; 4.00 uM): −0.042 log2 fold change
Z.LYZ.S ([2]; 4.00 uM): −0.320
repSSMD.LYZ.S ([2]; 4.00 uM): −0.503
Dose.FC.LYZ.NS ([3]; 0.50 uM): 0.005 log2 fold change
Z.LYZ.NS ([3]; 0.50 uM): 0.039
repSSMD.LYZ.NS ([3]; 0.50 uM): 0.058
Dose.FC.LYZ.NS ([3]; 1.00 uM): −0.200 log2 fold change
Z.LYZ.NS ([3]; 1.00 uM): −1.600
repSSMD.LYZ.NS ([3]; 1.00 uM): −1.909
Dose.FC.LYZ.NS ([3]; 2.00 uM): −0.221 log2 fold change
Z.LYZ.NS ([3]; 2.00 uM): −1.764
repSSMD.LYZ.NS ([3]; 2.00 uM): −2.529
Dose.FC.LYZ.NS ([3]; 4.00 uM): 0.015 log2 fold change
Z.LYZ.NS ([3]; 4.00 uM): 0.120
repSSMD.LYZ.NS ([3]; 4.00 uM): 0.171
Dose.FC.LYZ.S [4, 7]: 0.136 log2 fold change
Dose.FC.LYZ.S [4, 8]: 0.172 log2 fold change
Dose.FC.LYZ.S [4, 9]: 0.209 log2 fold change
Dose.FC.LYZ.S [4, 10]: −0.024 log2 fold change
Z.LYZ.NS ([5]; dose 0.08 uM): 0.654
Z.LYZ.NS ([5]; dose 0.40 uM): 1.059
Z.LYZ.NS ([5]; dose 2.00 uM): 1.721
Z.LYZ.NS ([5]; dose 10.00 uM): 0.297
Dose.FC.LYZ.NS [5, 7]: 0.075 log2 fold change
Dose.FC.LYZ.NS [5, 8]: 0.122 log2 fold change
Dose.FC.LYZ.NS [5, 9]: 0.198 log2 fold change
Dose.FC.LYZ.NS [5, 10]: 0.034 log2 fold change
Z.CTG (ENR+CD organoids [6]; dose 0.08 uM): 0.623
Z.CTG (ENR+CD organoids [6]; dose 0.40 uM): 0.640
Z.CTG (ENR+CD organoids [6]; dose 2.00 uM): 0.721
Z.CTG (ENR+CD organoids [6]; dose 10.00 uM): −0.766
Dose.FC.CTG (ENR+CD organoids [6]; [7]): 0.261 log2 fold change
Dose.FC.CTG (ENR+CD organoids [6]; [8]): 0.268 log2 fold change
Dose.FC.CTG (ENR+CD organoids [6]; [9]): 0.302 log2 fold change
Dose.FC.CTG (ENR+CD organoids [6]; [10]): −0.321 log2 fold change

COc1cc(Nc2c(C#N)cnc3cc(OCCCN4CCN(C)CC4)c(OC)cc23)c(Cl)cc1Cl [Bosutinib (SKI-606), Bosutinib, reference compound]
Dose.FC.CTG (ENR+CD organoids [1]; 0.02 uM): 0.216 log2 fold change
Dose.FC.CTG (ENR+CD organoids [1]; 0.04 uM): 0.139 log2 fold change
Dose.FC.CTG (ENR+CD organoids [1]; 0.08 uM): 0.082 log2 fold change
Dose.FC.CTG (ENR+CD organoids [1]; […]): 0.128 log2 fold change
Dose.FC.LYZ.S ([2]; 0.02 uM): 0.103 log2 fold change
Dose.FC.LYZ.S ([2]; 0.04 uM): −0.086 log2 fold change
Dose.FC.LYZ.S ([2]; 0.08 uM): −0.072 log2 fold change
Dose.FC.LYZ.S ([2]; […]): 0.007 log2 fold change
Dose.FC.LYZ.NS ([3]; 0.02 uM): 0.133 log2 fold change
Dose.FC.LYZ.NS ([3]; 0.04 uM): −0.067 log2 fold change
Dose.FC.LYZ.NS ([3]; 0.08 uM): −0.070 log2 fold change
Dose.FC.LYZ.NS ([3]; […]): 0.068 log2 fold change
Dose.FC.LYZ.S ([4]; dose 0.08 uM): 0.308 log2 fold change
Dose.FC.LYZ.S ([4]; dose 0.40 uM): 0.208 log2 fold change
Dose.FC.LYZ.S ([4]; dose 2.00 uM): −0.058 log2 fold change
Dose.FC.LYZ.S ([4]; dose 10.00 uM): −0.223 log2 fold change
Dose.FC.LYZ.NS ([5]; dose 0.08 uM): 0.213 log2 fold change
Z.LYZ.NS (standard z score) ([5]; dose 0.08 uM): 1.858
Dose.FC.LYZ.NS ([5]; dose 0.40 uM): 0.130 log2 fold change
Z.LYZ.NS (standard z score) ([5]; dose 0.40 uM): 1.129
Dose.FC.LYZ.NS ([5]; dose 2.00 uM): −0.049 log2 fold change
Z.LYZ.NS (standard z score) ([5]; dose 2.00 uM): −0.425
Dose.FC.LYZ.NS ([5]; dose 10.00 uM): −0.115 log2 fold change
Z.LYZ.NS (standard z score) ([5]; dose 10.00 uM): −1.005
Dose.FC.CTG (ENR+CD organoids [6]; dose 0.08 uM): 0.628 log2 fold change
Dose.FC.CTG (ENR+CD organoids [6]; dose 0.40 uM): 0.302 log2 fold change
Dose.FC.CTG (ENR+CD organoids [6]; dose 2.00 uM): −0.169 log2 fold change
Dose.FC.CTG (ENR+CD organoids [6]; dose 10.00 uM): −0.668 log2 fold change
